Results published in PubChem BioAssay (NCI).
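Following 48 hours of exposure in 96-well plates, responses at five concentrations were used to interpolate endpoints linearly. The concentration for full growth arrest is given as TGI.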

Experiments:
Assay in all cases: growth of human tumour cells (NCI), 48 h
[1] = tested on: EKVX NSCLC
[2] = tested on: SNB-78 CNS
[3] = tested on: RPMI-8226 leukemia
[4] = tested on: SK-OV-3 ovarian
[5] = tested on: RXF 393 renal
[6] = tested on: HCT-116 colon
[7] = tested on: U251 CNS
[8] = tested on: NCI-H23 lung
[9] = tested on: DLD-1 colon
[10] = tested on: IGROV1 ovarian
[11] = tested on: LOX IMVI melanoma
[12] = tested on: SN12C renal
[13] = tested on: SNB-19 CNS
[14] = tested on: COLO 205 colon
[15] = tested on: HL-60(TB) leukemia
[16] = tested on: UO-31 renal
[17] = tested on: ACHN renal
[18] = tested on: HOP-18 NSCLC
[19] = tested on: UACC-257 melanoma
[20] = tested on: UACC-62 melanoma
[21] = tested on: KM20L2 colon
[22] = tested on: NCI-H522 lung
[23] = tested on: CAKI-1 renal
[24] = tested on: SK-MEL-2 melanoma
[25] = tested on: DMS 273 small cell lung
[26] = tested on: NCI-H460 lung
[27] = tested on: 786-0 renal
[28] = tested on: M19-MEL melanoma
[29] = tested on: TK-10 renal
[30] = tested on: HT29 colon
[31] = tested on: LXFL 529 NSCLC
[32] = tested on: HCT-15 colon
[33] = tested on: MALME-3M melanoma
[34] = tested on: HOP-62 NSCLC
[35] = tested on: A498 renal
[36] = tested on: SF-268 CNS
[37] = tested on: OVCAR-4 ovarian
[38] = tested on: OVCAR-3 ovarian
[39] = tested on: SF-539 CNS
[40] = tested on: OVCAR-8 ovarian
[41] = tested on: KM12 colon
[42] = tested on: CCRF-CEM leukemia
[43] = tested on: SF-295 CNS
[44] = tested on: SNB-75 CNS
[45] = tested on: SK-MEL-28 melanoma
[46] = tested on: OVCAR-5 ovarian
[47] = tested on: A549 NSCLC
[48] = tested on: SK-MEL-5 melanoma
[49] = tested on: M14 melanoma
[50] = tested on: DMS 114 small cell lung
[51] = tested on: HOP-92 NSCLC
[52] = tested on: MOLT-4 leukemia
[53] = tested on: HS 578T breast
[54] = tested on: DU-145 prostate
[55] = tested on: BT-549 breast
[56] = tested on: MDA-MB-231 breast
[57] = tested on: NCI/ADR-RES ovarian
[58] = tested on: SR leukemia
[59] = tested on: T-47D breast
[60] = tested on: SW-620 colon
[61] = tested on: MDA-MB-435
[62] = tested on: PC-3 prostate
[63] = tested on: K-562 leukemia
[64] = tested on: HCC-2998 colon
[65] = tested on: NCI-H226 lung
[66] = tested on: MDA-N
[67] = tested on: MCF7 breast

CCCCCCCOc1ccc(/C=C\c2cc[n+](CCCCCCCC[n+]3ccc(/C=C\c4ccc(OCCCCCCC)cc4)cc3)cc2)cc1
TGI [1]: > 100 µM | TGI [2]: > 100 µM | TGI [3]: > 100 µM | TGI [4]: 57.8 µM | TGI [5]: > 100 µM | TGI [6]: 26.5 µM | TGI [7]: 24.6 µM | TGI [8]: > 100 µM | TGI [9]: 67 µM | TGI [10]: 33.3 µM | TGI [11]: > 100 µM | TGI [12]: 57 µM | TGI [13]: > 100 µM | TGI [14]: 58.7 µM | TGI [15]: > 100 µM | TGI [16]: 41.2 µM | TGI [17]: > 100 µM | TGI [18]: 28.4 µM | TGI [19]: > 100 µM | TGI [20]: > 100 µM | TGI [21]: 63.1 µM | TGI [22]: 10.7 µM | TGI [23]: 63.7 µM | TGI [24]: 74.3 µM | TGI [25]: 71.1 µM | TGI [26]: 17 µM | TGI [27]: 32 µM | TGI [28]: > 100 µM | TGI [29]: 43.7 µM | TGI [30]: 28.7 µM | TGI [31]: 34.8 µM | TGI [32]: 34.1 µM | TGI [33]: 33.7 µM | TGI [34]: > 100 µM | TGI [35]: 80.8 µM | TGI [36]: 44.6 µM | TGI [37]: > 100 µM | TGI [38]: 33.1 µM | TGI [39]: > 100 µM | TGI [40]: 55.5 µM | TGI [41]: 28.2 µM | TGI [42]: > 100 µM | TGI [43]: > 100 µM | TGI [44]: > 100 µM | TGI [45]: 32.2 µM | TGI [46]: 46.5 µM | TGI [47]: 41.5 µM | TGI [48]: 27.7 µM | TGI [49]: 34.5 µM | TGI [50]: 36 µM | TGI [51]: > 100 µM | TGI [52]: 62.2 µM

COC1C=COC2(C)Oc3c(C)c(O)c4c(c3C2=O)/C(=N/C2CCC(O)OC2C)C=C(NC(=O)/C(C)=C\C(=O)C2CC2C(O)C(C)C(O)C(C)C(OC(C)=O)C1C)C4=O (stereo unspecified)
TGI [1]: 8.75 µM | TGI [3]: 5.74 µM | TGI [4]: 20.1 µM | TGI [5]: 3.45 µM | TGI [6]: 3.56 µM | TGI [53]: 8.38 µM | TGI [54]: 7.13 µM | TGI [55]: 6.28 µM | TGI [7]: 8.3 µM | TGI [56]: 5.69 µM | TGI [8]: 3.62 µM | TGI [10]: 6.13 µM | TGI [11]: 3.24 µM | TGI [12]: 3.24 µM | TGI [57]: 50.4 µM | TGI [13]: 11.6 µM | TGI [14]: 3.38 µM | TGI [15]: 6.32 µM | TGI [58]: 5.06 µM | TGI [59]: 8.61 µM | TGI [16]: 5.59 µM | TGI [17]: 6.68 µM | TGI [19]: 5.98 µM | TGI [20]: 4.3 µM | TGI [22]: 2.79 µM | TGI [23]: 9.92 µM | TGI [24]: 12.4 µM | TGI [26]: 11.5 µM | TGI [60]: 4.91 µM | TGI [61]: 3.64 µM | TGI [27]: 3.13 µM | TGI [29]: 7.25 µM | TGI [30]: 2.71 µM | TGI [32]: 9.79 µM | TGI [33]: 3.36 µM | TGI [34]: 8.75 µM | TGI [35]: 8.36 µM | TGI [36]: 10.5 µM | TGI [37]: 10.6 µM | TGI [38]: 5.21 µM | TGI [39]: 5.34 µM | TGI [40]: 3.89 µM | TGI [62]: 6.56 µM | TGI [63]: 6.3 µM | TGI [41]: 9.48 µM | TGI [64]: 6.88 µM | TGI [65]: 8.06 µM | TGI [42]: 10.9 µM | TGI [43]: 13.3 µM | TGI [44]: 12.4 µM | TGI [66]: 3.83 µM | TGI [45]: 4.32 µM | TGI [46]: 8.45 µM | TGI [47]: 11.4 µM | TGI [48]: 4.97 µM | TGI [49]: 4.47 µM | TGI [51]: 5.29 µM | TGI [67]: 4.74 µM | TGI [52]: 8.05 µM
